Results on 27 compounds are retold here after patent US8471005B2 (Cephalon, Inc., priority 2008, dated 2013).

Read-outs that look alike come from different tables or passages of the source.

One assay deals with T1, ALK (Homo sapiens, UniProt Q9UM73).
T1 construct: host or cells: baculovirus expression system
As to the kind of experiment: ALK Kinase Assay (ELISA/TRF, PLC-γ substrate). The format is biochemical. The settings on record: read-out: ALK Potency. A digest of the protocol:
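Read-out is time-resolved fluorescence from a Eu-N1-labeled PT66 antibody that binds phosphorylated PLC-γ, the substrate coated at 10 μg/mL in TBS. ALK at 30 ng/ml starts the reaction, which runs 15 minutes at 37° C.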
A general note: In an ELISA, binding on a coated surface is turned into a signal by an enzyme label.

A further assay has as its target T2, JAK2 (Homo sapiens, UniProt O60674).
T2 construct: host or cells: baculovirus expression system
The experiment in a line: Recombinant Human JAK2 Kinase Assay (TRF). The format is biochemical. The settings on record: read-out: JAK2 Potency. A digest of the protocol:
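Baculovirus-expressed JAK2 (15 ng/ml) phosphorylated a biotinylated 15-mer peptide captured on Neutravidin, in 20 mM HEPES pH 7.2, 0.2 μM ATP, 1 mM MnCl2, 0.1% BSA, 2.5% DMSO final, 20 min at room temperature. Phosphoproduct detected by time-resolved fluorescence with Eu-N1-labelled PY100 antibody.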

The mark [1] stands for this setting: ALK kinase inhibition, 1 μM ATP.
The mark [2] stands for this setting: JAK2 kinase inhibition, 0.2 μM ATP.

T2 sequence (O60674 whole entry): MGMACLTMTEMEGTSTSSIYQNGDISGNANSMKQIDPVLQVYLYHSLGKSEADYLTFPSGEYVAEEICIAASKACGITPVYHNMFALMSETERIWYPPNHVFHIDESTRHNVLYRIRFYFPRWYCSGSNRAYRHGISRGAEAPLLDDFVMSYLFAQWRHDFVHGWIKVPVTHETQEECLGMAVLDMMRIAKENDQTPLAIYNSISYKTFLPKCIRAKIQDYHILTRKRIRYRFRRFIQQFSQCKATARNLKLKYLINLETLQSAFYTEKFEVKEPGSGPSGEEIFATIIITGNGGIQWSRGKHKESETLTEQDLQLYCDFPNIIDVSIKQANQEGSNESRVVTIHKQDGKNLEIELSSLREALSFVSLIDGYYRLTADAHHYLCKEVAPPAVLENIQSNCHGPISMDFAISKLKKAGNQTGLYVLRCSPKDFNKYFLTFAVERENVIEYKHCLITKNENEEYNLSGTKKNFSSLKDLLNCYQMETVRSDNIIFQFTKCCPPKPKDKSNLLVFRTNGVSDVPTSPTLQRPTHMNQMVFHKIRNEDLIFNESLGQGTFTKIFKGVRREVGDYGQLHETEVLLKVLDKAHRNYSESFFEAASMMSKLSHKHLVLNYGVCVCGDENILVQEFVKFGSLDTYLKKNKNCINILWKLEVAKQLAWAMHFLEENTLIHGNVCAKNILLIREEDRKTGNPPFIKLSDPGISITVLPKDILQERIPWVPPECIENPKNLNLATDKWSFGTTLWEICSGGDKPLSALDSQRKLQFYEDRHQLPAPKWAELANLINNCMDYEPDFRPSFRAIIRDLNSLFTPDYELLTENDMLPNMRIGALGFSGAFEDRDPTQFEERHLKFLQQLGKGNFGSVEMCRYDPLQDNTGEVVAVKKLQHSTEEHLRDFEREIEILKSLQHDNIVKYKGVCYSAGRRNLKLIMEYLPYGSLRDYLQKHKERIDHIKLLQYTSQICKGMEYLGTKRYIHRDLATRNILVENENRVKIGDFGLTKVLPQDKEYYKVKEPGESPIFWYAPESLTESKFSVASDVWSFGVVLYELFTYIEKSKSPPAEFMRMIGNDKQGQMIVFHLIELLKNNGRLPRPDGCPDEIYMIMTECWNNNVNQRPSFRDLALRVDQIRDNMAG
T1 sequence (Q9UM73 19-1620): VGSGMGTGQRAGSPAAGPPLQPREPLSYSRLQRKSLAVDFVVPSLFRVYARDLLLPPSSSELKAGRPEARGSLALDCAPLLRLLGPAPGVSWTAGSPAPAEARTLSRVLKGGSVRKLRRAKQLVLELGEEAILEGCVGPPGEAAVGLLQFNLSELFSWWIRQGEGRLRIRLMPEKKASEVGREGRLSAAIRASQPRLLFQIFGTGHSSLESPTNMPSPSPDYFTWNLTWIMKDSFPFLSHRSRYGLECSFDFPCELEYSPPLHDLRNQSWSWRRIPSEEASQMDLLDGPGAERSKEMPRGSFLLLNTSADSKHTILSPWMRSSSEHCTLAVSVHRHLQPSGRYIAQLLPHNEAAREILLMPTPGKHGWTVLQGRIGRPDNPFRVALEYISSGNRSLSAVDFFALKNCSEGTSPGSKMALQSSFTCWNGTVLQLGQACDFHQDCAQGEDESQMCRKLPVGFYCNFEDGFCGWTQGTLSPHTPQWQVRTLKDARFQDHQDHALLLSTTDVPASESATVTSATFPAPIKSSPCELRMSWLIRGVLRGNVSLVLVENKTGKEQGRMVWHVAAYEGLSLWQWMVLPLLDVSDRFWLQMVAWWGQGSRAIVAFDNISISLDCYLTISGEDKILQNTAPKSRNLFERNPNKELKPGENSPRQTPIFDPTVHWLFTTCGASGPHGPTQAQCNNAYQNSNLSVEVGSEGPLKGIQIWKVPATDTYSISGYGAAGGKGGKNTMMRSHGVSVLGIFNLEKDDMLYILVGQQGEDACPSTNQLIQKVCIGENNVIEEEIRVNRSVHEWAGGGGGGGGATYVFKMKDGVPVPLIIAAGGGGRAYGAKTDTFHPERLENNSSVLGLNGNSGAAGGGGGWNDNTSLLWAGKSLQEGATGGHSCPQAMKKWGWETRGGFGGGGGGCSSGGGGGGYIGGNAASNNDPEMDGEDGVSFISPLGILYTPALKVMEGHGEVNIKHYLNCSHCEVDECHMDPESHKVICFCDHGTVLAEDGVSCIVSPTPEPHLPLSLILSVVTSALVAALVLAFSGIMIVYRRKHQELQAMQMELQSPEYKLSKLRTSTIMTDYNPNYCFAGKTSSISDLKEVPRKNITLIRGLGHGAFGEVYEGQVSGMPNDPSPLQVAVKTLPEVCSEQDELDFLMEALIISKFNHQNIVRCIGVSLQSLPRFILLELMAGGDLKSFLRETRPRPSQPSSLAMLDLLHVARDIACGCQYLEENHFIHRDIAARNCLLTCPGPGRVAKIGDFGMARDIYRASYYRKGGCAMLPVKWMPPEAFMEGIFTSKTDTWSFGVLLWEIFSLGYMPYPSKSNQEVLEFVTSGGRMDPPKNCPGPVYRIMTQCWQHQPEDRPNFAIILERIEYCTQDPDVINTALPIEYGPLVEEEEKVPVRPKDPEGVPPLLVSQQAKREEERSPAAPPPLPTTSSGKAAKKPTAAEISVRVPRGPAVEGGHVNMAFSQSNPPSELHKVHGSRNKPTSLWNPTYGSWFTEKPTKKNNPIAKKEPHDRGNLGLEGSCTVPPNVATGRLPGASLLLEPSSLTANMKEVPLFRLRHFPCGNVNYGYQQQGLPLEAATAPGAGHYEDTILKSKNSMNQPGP

`COc1cc(C2(C#N)CCC(O)CC2)ccc1Nc1ncc2ccc(-c3ccccc3N(C)S(C)(=O)=O)n2n1` (stereo not drawn) [Example 1253, N-(2-{2-[4-(1-Cyano-4-hydroxy-cyclohexyl)-2-methoxy-phenylamino]-pyrrolo[2,1-f][1,2,4]triazin-7-yl}-phenyl)-N-methyl-methanesulfonamide]: the IC50 is less than 0.1 µM at ALK (setting [1]) and 0.1 to 1 µM on JAK2 (setting [2]).

`CC(C)(C)NS(=O)(=O)c1cccc(-c2ccc3cnc(Nc4ccc(C5CNCCN5)cc4)nn23)c1` (stereo not drawn) [Example 1528, N-tert-Butyl-3-[2-(4-piperazin-2-yl-phenylamino)-pyrrolo[2,1-f][1,2,4]triazin-7-yl]-benzenesulfonamide]: the IC50 at ALK (ALK Kinase Inhibition) was 0.1 to 1 µM; at JAK2 (JAK2 Kinase Inhibition), less than 0.1 µM.

As to “N-[2-(2-{4-[4-(2-Hydroxy-ethylamino)-piperidin-1-yl]-2-methoxy-phenylamino}-pyrrolo[2,1-f][1,2,4]triazin-7-yl)-phenyl]-N-methyl-methanesulfonamide [Example 798]”, the IC50 on ALK (setting [1]) is less than 0.1 µM; on JAK2 (setting [2]), 0.1 to 1 µM.

For `CN(c1ccccc1-c1ccc2cnc(Nc3ccc(C4CCN(CCO)CC4)cc3)nn12)S(C)(=O)=O` [Example 669, N-[2-(2-{4-[1-(2-Hydroxy-ethyl)-piperidin-4-yl]-phenylamino}-pyrrolo[2,1-f][1,2,4]triazin-7-yl)-phenyl]-N-methyl-methanesulfonamide], the IC50 at ALK (setting [1]) and on JAK2 (setting [2]) was less than 0.1 µM each time.

For the compound `CN(C)S(=O)(=O)c1ccc(Nc2ncc3ccc(-c4cccc(S(=O)(=O)NC(C)(C)C)c4)n3n2)cc1` [Example 593, 4-({7-[3-(tert-butylsulfamoyl)phenyl]pyrrolo[2,1-f][1,2,4]triazin-2-yl}amino)-N,N-dimethylbenzenesulfonamide], the IC50 is more than 10 µM on ALK (setting [1]) and less than 0.1 µM at JAK2 (setting [2]).

Take `COc1cc(N2CCOCC2)ccc1Nc1ncc2cc3ccccc3n2n1` [Example 266, (2-Methoxy-4-morpholin-4-yl-phenyl)-[1,2,4]triazino[1,6-a]indol-2-yl-amine]: the IC50 is 1 to 10 µM on ALK (ALK Kinase Inhibition) and more than 10 µM on JAK2 (JAK2 Kinase Inhibition).

In the case of `COc1ccccc1-c1ccc2cnc(-c3nnn[nH]3)nn12` [Example 1502, 7-(2-Methoxy-phenyl)-2-(1H-tetrazol-5-yl)-pyrrolo[2,1-f][1,2,4]triazine], the IC50 on ALK (ALK Kinase Inhibition) and at JAK2 (JAK2 Kinase Inhibition) was more than 10 µM in each case.

For the compound `CS(=O)(=O)Nc1cccc(-c2ccc3cnc(Nc4ccc(N5CCOCC5)cc4)nn23)c1` [Example 201, N-{3-[2-(4-Morpholin-4-yl-phenylamino)-pyrrolo[2,1-f][1,2,4]triazin-7-yl]-phenyl}-methanesulfonamide], the IC50 on ALK (ALK Kinase Inhibition) is 0.1 to 1 µM; on JAK2 (JAK2 Kinase Inhibition) it was less than 0.1 µM.

On to `COc1ccccc1-c1ccc2cnc(Nc3ccc4nc(C(F)(F)F)[nH]c4c3)nn12` [Example 1305], for which the IC50 is 1 to 10 µM on ALK (setting [1]) and less than 0.1 µM at JAK2 (setting [2]).

In the case of `CN1CCN(c2cccc(Nc3ncc4ccc(-c5cccc6c5OC(F)(F)O6)n4n3)c2)CC1` [Example 1534, [7-(2,2-Difluoro-benzo[1,3]dioxol-4-yl)-pyrrolo[2,1-f][1,2,4]triazin-2-yl]-[3-(4-methyl-piperazin-1-yl)-phenyl]-amine], the IC50 at ALK (ALK Kinase Inhibition) was 0.1 to 1 µM; on JAK2 (JAK2 Kinase Inhibition), less than 0.1 µM.

Regarding `COc1cc(C2CCN(C[C@H](O)CO)CC2)ccc1Nc1ncc2ccc(-c3cccc(S(=O)(=O)NC(C)(C)C)c3)n2n1` [Example 695, N-tert-Butyl-3-(2-{4-[1-((S)-2,3-dihydroxy-propyl)-piperidin-4-yl]-2-methoxy-phenylamino}-pyrrolo[2,1-f][1,2,4]triazin-7-yl)-benzenesulfonamide], the IC50 on ALK (setting [1]) is less than 0.1 µM; on JAK2 (setting [2]), 0.1 to 1 µM.

On to `O=S(=O)(c1cccc(-c2ccc3cnc(Nc4ccc(N5CCOCC5)cc4)nn23)c1)N1CCCC1` [Example 358, (4-Morpholin-4-yl-phenyl)-{7-[3-(pyrrolidine-1-sulfonyl)-phenyl]-pyrrolo[2,1-f][1,2,4]triazin-2-yl}-amine], for which the figures for the IC50 at ALK (ALK Kinase Inhibition) and at JAK2 (JAK2 Kinase Inhibition) were 0.1 to 1 µM and less than 0.1 µM, respectively.

In the case of `CN1CCC(C(=O)N2CCC(c3ccc(Nc4ncc5ccc(-c6ccccc6N(C)S(C)(=O)=O)n5n4)cc3)CC2)CC1` [Example 502, N-Methyl-N-[2-(2-{4-[1-(1-methyl-piperidine-4-carbonyl)-piperidin-4-yl]-phenylamino}-pyrrolo[2,1-f][1,2,4]triazin-7-yl)-phenyl]-methanesulfonamide], the IC50 at ALK (setting [1]) and on JAK2 (setting [2]) was less than 0.1 µM in each case.

With `COc1ccccc1-c1ccc2cnc(Nc3ccc(CN4CCN(C)CC4)cc3)nn12` [Example 353, [7-(2-Methoxy-phenyl)-pyrrolo[2,1-f][1,2,4]triazin-2-yl]-[4-(4-methyl-piperazin-1-ylmethyl)-phenyl]-amine], the IC50 at ALK (ALK Kinase Inhibition) and at JAK2 (JAK2 Kinase Inhibition) was less than 0.1 µM throughout.

With `Cn1cnc2ccc(Nc3ncc4ccc(-c5cccc(S(=O)(=O)CC6CC6)c5)n4n3)cc21` [Example 1320, [7-(3-Cyclopropylmethanesulfonyl-phenyl)-pyrrolo[2,1-f][1,2,4]triazin-2-yl]-(3-methyl-3H-benzimidazol-5-yl)-amine], the figures for the IC50 on ALK (setting [1]) and at JAK2 (setting [2]) were 0.1 to 1 µM and less than 0.1 µM, respectively.

Take `CN1CCN(Cc2cccc(Nc3ncc4ccc(-c5cccc(S(C)(=O)=O)c5)n4n3)n2)CC1` [Example 1124, [7-(3-Methanesulfonyl-phenyl)-pyrrolo[2,1-f][1,2,4]triazin-2-yl]-[6-(4-methyl-piperazin-1-ylmethyl)-pyridin-2-yl]-amine]: the IC50 on ALK (setting [1]) and on JAK2 (setting [2]) was more than 10 µM throughout.

`CN1C(=O)Cc2cc(Nc3ncc4ccc(-c5ccccc5N(C)S(C)(=O)=O)n4n3)ccc21` [Example 375, N-Methyl-N-{2-[2-(1-methyl-2-oxo-2,3-dihydro-1H-indol-5-ylamino)-pyrrolo[2,1-f][1,2,4]triazin-7-yl]-phenyl}-methanesulfonamide]: the IC50 is 0.1 to 1 µM at ALK (ALK Kinase Inhibition) and less than 0.1 µM on JAK2 (JAK2 Kinase Inhibition).

Take `CN1CCN(Cc2ccc(Nc3ncc4ccc(-c5ccc(S(C)(=O)=O)cc5)n4n3)cc2)CC1` [Example 355, [7-(4-Methanesulfonyl-phenyl)-pyrrolo[2,1-f][1,2,4]triazin-2-yl]-[4-(4-methyl-piperazin-1-ylmethyl)-phenyl]-amine]: the IC50 on ALK (ALK Kinase Inhibition) was 1 to 10 µM; on JAK2 (JAK2 Kinase Inhibition), less than 0.1 µM.

In the case of `CN1CCN(c2ccc(Nc3ncc4ccc(NCc5ccncc5)n4n3)cc2)CC1` [Example 1165, N(2)-[4-(4-Methyl-piperazin-1-yl)-phenyl]-N(7)-pyridin-4-ylmethyl-pyrrolo[2,1-f][1,2,4]triazine-2,7-diamine], the results for the IC50 at ALK (setting [1]) and at JAK2 (setting [2]) were 1 to 10 µM and less than 0.1 µM, respectively.

Regarding `COc1cc(C2CCN(CC(N)=O)CC2)ccc1Nc1ncc2ccc(-c3cn(C)nc3N(C)S(C)(=O)=O)n2n1` [Example 1256, 2-[4-(4-{7-[3-(Methanesulfonyl-methyl-amino)-1-methyl-1H-pyrazol-4-yl]-pyrrolo[2,1-f][1,2,4]triazin-2-ylamino}-3-methoxy-phenyl)-piperidin-1-yl]-acetamide], the IC50 on ALK (setting [1]) was less than 0.1 µM; on JAK2 (setting [2]), 1 to 10 µM.

As to `COc1ccccc1-c1ccc2cnc(Nc3cc(F)c(N4CCN(C[C@H](C)O)CC4)cc3F)nn12` [Example 1481, (S)-1-(4-{2,5-Difluoro-4-[7-(2-methoxy-phenyl)-pyrrolo[2,1-f][1,2,4]triazin-2-ylamino]-phenyl}-piperazin-1-yl)-propan-2-ol], the IC50 at ALK (ALK Kinase Inhibition) and at JAK2 (JAK2 Kinase Inhibition) was less than 0.1 µM throughout.

For the compound `Cc1cc(Nc2ncc3ccc(-c4cccc(Cl)c4)n3n2)ccc1N1CCOCC1` [Example 66, [7-(3-Chloro-phenyl)-pyrrolo[2,1-f][1,2,4]triazin-2-yl]-(3-methyl-4-morpholin-4-yl-phenyl)-amine], the results for the IC50 at ALK (ALK Kinase Inhibition) and at JAK2 (JAK2 Kinase Inhibition) were 1 to 10 µM and less than 0.1 µM, respectively.

Take `COc1cc(N2CCN(C[C@H](C)O)CC2)c(F)cc1Nc1ncc2ccc(-c3ccccc3OC)n2n1` [Example 1480, (S)-1-(4-{2-Fluoro-5-methoxy-4-[7-(2-methoxy-phenyl)-pyrrolo[2,1-f][1,2,4]triazin-2-ylamino]-phenyl}-piperazin-1-yl)-propan-2-ol]: the IC50 is less than 0.1 µM at ALK (ALK Kinase Inhibition) and 0.1 to 1 µM on JAK2 (JAK2 Kinase Inhibition).

Consider `CN1CCN(c2ccc(Nc3ncc4ccc(-c5cccc(NS(C)(=O)=O)c5)n4n3)cc2)CC1` [Example 379, N-(3-{2-[4-(4-Methyl-piperazin-1-yl)-phenylamino]-pyrrolo[2,1-f][1,2,4]triazin-7-yl}-phenyl)-methanesulfonamide], for which the IC50 on ALK (ALK Kinase Inhibition) is 0.1 to 1 µM; at JAK2 (JAK2 Kinase Inhibition) it was less than 0.1 µM.

For `CC(=O)Nc1cc(Nc2ncc3ccc(-c4ccc(S(C)(=O)=O)cc4)n3n2)ccc1C(C)(C)C` [Example 326, N-{2-tert-Butyl-5-[7-(4-methanesulfonyl-phenyl)-pyrrolo[2,1-f][1,2,4]triazin-2-ylamino]-phenyl}-acetamide], the IC50 on ALK (ALK Kinase Inhibition) is more than 10 µM; on JAK2 (JAK2 Kinase Inhibition) it was less than 0.1 µM.

Regarding `COc1ccccc1-c1ccc2cnc(Nc3ccc4oc(C)nc4c3)nn12` [Example 564, [7-(2-Methoxy-phenyl)-pyrrolo[2,1-f][1,2,4]triazin-2-yl]-(2-methyl-benzoxazol-5-yl)-amine], the IC50 on ALK (setting [1]) was 0.1 to 1 µM; on JAK2 (setting [2]), less than 0.1 µM.

Consider `CN1CCN(c2cccc(Nc3ncc4ccc(-c5cnn(CCC#N)c5)n4n3)c2)CC1` [Example 977, 3-(4-{2-[3-(4-Methyl-piperazin-1-yl)-phenylamino]-pyrrolo[2,1-f][1,2,4]triazin-7-yl}-pyrazol-1-yl)-propionitrile], for which the IC50 on ALK (setting [1]) was 0.1 to 1 µM; on JAK2 (setting [2]), less than 0.1 µM.
